By IC50 is commonly meant the concentration that gives 50% inhibition. Read a high IC50 as lower potency.

Data on 5 compounds can be found in US11174251B2, “Compositions and methods for inhibition of the JAK pathway” (Rigel Pharmaceuticals, Inc., priority 2010, dated 2021).

The experiment deals with T1, JAK3 (Homo sapiens, UniProt P52333).
T1 construct: The Ramos B-cell line was acquired from ATCC (ATCC Catalog No. CRL-1596); host or cells: Ramos B-cell line (human)
T1 sequence (P52333 1-1124): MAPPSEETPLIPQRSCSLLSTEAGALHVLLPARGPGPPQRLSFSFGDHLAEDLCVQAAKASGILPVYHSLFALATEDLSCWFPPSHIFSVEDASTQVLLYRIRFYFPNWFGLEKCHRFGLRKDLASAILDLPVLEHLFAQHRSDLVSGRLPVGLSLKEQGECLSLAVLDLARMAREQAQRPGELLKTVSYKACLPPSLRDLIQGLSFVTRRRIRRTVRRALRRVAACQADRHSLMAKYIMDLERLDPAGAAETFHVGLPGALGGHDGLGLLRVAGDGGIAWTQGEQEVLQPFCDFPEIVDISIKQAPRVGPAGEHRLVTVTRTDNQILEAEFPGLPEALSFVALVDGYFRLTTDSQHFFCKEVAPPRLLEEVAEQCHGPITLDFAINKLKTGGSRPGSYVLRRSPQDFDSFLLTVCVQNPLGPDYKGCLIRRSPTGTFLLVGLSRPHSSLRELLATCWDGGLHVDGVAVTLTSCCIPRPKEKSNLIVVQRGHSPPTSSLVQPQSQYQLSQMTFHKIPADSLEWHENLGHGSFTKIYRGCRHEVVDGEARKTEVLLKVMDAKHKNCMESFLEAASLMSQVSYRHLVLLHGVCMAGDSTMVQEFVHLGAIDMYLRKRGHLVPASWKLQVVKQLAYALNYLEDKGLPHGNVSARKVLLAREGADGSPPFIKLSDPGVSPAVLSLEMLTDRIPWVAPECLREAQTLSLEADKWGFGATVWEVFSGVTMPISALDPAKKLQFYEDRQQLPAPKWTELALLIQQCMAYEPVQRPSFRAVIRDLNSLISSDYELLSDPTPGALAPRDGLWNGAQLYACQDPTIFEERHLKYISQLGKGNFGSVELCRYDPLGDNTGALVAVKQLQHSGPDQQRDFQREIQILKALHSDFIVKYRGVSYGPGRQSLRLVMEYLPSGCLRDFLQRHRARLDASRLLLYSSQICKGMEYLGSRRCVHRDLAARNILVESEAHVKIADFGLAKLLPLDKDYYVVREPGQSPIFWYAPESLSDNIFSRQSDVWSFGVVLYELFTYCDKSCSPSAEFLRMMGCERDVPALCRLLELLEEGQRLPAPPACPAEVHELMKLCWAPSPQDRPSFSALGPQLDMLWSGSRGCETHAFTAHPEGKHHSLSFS
Kind of experiment: Assay for CD23 expression on Ramos B-cells stimulated by IL-4 (Table IV: ability to inhibit JAK3 activity). It is filed as cell-based. Particulars: tested under conditions described in Example 3 (so in the source). Put shortly: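 Human Ramos B cells in RPMI with 5% serum, pre-incubated 1 h at 37 °C with compound or DMSO, then stimulated with IL-4 (final 50 units/mL) for 20–24 h. Surface CD23 upregulation measured by FACS staining as readout of JAK1/JAK3–Stat-6 signalling.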

SMILES strings stand for the structures. Counter-ions that a name gives are not always drawn.

Consider `COC(=O)c1cnc(Nc2ccc(C)c(OC)c2)nc1Nc1ccc2oc(=O)[nH]c2c1` [Compound I-56, 2-(3-Methoxy-4-methyl-phenylamino)-4-(2-oxo-2,3-dihydro-benzooxazol-5-ylamino)-pyrimidine-5-carboxylic acid methyl ester trifluoroacetate salt], for which the IC50 is above 10 µM.

For `Cc1cc(Nc2ncc(C)c(Nc3ccc4oc(=O)[nH]c4c3)n2)ncc1C#N` [II-22, N2-(5-cyano-4-methylpyridin-2-yl)-5-methyl-N4-(2-oxo-2,3-dihydro-1,3-benzoxazol-5-yl)-2,4-pyrimidinediamine], the IC50 was in the range of 0.5 to 5 µM.

Take `Cc1cnc(Nc2cc(C)c(C)c(C)c2)nc1Nc1cc(CN2CCCC2)c2oc(=O)[nH]c2c1` [Compound I-91, 5-(2-(3,4,5-trimethylphenylamino)-5-methylpyrimidin-4-ylamino)-7-((pyrrolidin-1-yl)methyl)benzo[d]oxazol-2(3H)-one]: the IC50 is 0.5 to 5 µM.

In the case of `O=C1CCCc2cc(Nc3ncc(F)c(Nc4ccc5oc(=O)[nH]c5c4)n3)ccc2N1` [II-27, 7-(4-(2,3-dihydro-2-oxobenzo[d]oxazol-5-ylamino)-5-fluoropyrimidin-2-ylamino)-4,5-dihydro-1H-benzo[b]azepin-2(3H)-one trifluoroacetate salt], the IC50 was below 0.5 µM.

In the case of `COC(=O)c1cnc(Nc2cc(C)c(F)c(C)c2)nc1Nc1ccc2oc(=O)[nH]c2c1` [Compound I-74, methyl 2-(4-fluoro-3,5-dimethylphenylamino)-4-(2-oxo-2,3-dihydrobenzo[d]oxazol-5-ylamino)pyrimidine-5-carboxylate trifluoroacetate salt], the concentration for half-maximal inhibition (IC50) fell in the range of 5 to 10 µM.
